Assay results taken from paper PMC8470988, “Glucosylation of (±)-Menthol by Uridine-Diphosphate-Sugar Dependent Glucosyltransferases from Plants” (Molecules, 2021).
pKd: −log10 of the molar value.

Target: T1, UGT93Y1 (Camellia sinensis, UniProt A0A4S4F2U3)
T1 construct: gene TEA_008645; UGT 467 aa, fusion about 80 kDa; His29, Asp134, PSPG box Trp342-Gln385, TSS 413-415
Assay: UDP Glo glycosyltransferase assay
Assay type: biochemical
Settings: UDP-glucose as donor; 30 °C; 0-1000 µM menthol; kinetic fit with substrate inhibition, two-site sequential model with identical dissociation constants

T1 sequence (A0A4S4F2U3 entry or part of it): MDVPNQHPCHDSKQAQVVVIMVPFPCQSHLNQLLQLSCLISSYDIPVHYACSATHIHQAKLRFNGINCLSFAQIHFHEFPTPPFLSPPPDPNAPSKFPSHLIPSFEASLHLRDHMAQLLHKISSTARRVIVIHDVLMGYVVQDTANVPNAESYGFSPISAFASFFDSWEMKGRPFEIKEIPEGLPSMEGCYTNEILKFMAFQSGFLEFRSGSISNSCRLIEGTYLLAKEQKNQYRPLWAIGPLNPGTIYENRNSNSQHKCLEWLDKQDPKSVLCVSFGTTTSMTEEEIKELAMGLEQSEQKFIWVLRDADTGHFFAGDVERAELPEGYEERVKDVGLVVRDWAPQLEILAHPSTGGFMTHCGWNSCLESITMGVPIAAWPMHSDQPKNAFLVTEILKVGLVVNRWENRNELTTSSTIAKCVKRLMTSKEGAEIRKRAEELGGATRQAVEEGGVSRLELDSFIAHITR

Compound `CC1CCC(C(C)C)C(O)C1` (racemic) [(±)-menthol] has a pKd of 3.34.
